{"source": "patent US11241455B2", "about": "“Methods of treating disease by metabolic control of T-cell differentiation” (The J. David Gladstone Institutes, a testamentary trust …, priority 2016, dated 2022)", "type_in_all_cases": "cell-based, mouse", "key": {"[1]": {"tested_on": "differentiating iTreg cells", "experiment": "15N-α-glutamine flux analysis (transamination) in differentiating iTreg cells", "description": "(§1) CD4 naïve T cells, differentiating TH17 or iTreg cells (68 hours) were incubated with fresh media prior to labeling. The cells were then cultured for 4 hours at 37° C. with medium where the glutamine was replaced with the corresponding stable isotope label: 2 mM U-^13C glutamine or 2 mM ^15N-α-glutamine for 4 hours at 37° C. The cells were quickly collected and quickly washed with phosphate buffer saline (PBS), pelleted, and snap frozen in liquid nitrogen. The frozen samples were kept in −80° C. until extraction. Cell extracts were prepared by first adding 80/20 MeOH/H2O at −60° C. to the frozen pellets and collecting the supernatant after centrifugation at 4° C. The extracted samples were analyzed by high-resolution liquid-chromatography-mass spectrometry. Unlabeled glutamine-fed cells were used as background.\nFor amino acid profiling: The ultra-high pressure liquid chromatography (U-HPLC) system consisted of a Thermo Fisher Scientific (San Jose, USA) U-HPLC pumping system, coupled to an autosampler and degasser. Chromatographic separation of the intracellular metabolites was achieved by usage of a reversed phase Atlantis® T3 (3 μm, 2.1 mm ID×150 mm) column (Waters, Eschborn, Germany) and by implementation of a gradient elution program. […]"}, "[2]": {"tested_on": "FOXP3 promoter and its intronic CpG island", "experiment": "Methylation analysis by bisulfite sequencing, T cells under iTreg condition", "details": "iTreg condition (day 5); 0.5 mM dimethyl R-2-HG or AOA; male mice", "description": "The method is essentially the same as described previously (Kim, et al. J Exp Med 204 (7), 1543-1551 (2007)). Briefly, genomic DNA was purified with Blood & Cell Culture DNA Midi Kit (Qiagen). Bisufite conversion of genomic DNA was performed using Epitect® bisulfite kit (Qiagen), according to the manufacture's instruction. The PCR product was run on 2% agarose, purified and cloned using TOPO® TA Cloning® Kit with PCR®4. Clones are picked for Sanger sequencing."}, "[3]": {"tested_on": "FOXP3 mRNA in iTreg cells", "experiment": "mRNA expression analysis by qRT-PCR in iTreg cells", "details": "normalized to β-actin", "description": "(§2) At the end of differentiation (day 6), T cells were re-stimulated with plate-coated anti-CD3 and anti-CD28 for 5 hours in the absence of any small-molecule compounds or metabolites. Quantitative reverse transcriptase polymerase chain reaction (qRT-PCR) was performed to evaluate mRNA expression of FOXP3, Il17, Il17f, and Rorc. For differentiating TH17 or iTreg cells, cells were collected on day 2.5 or at the indicated time for mRNA expression analysis. The expression was normalized to β-actin."}, "[4]": {"tested_on": "differentiating TH17 cells", "experiment": "U-13C glutamine flux analysis in differentiating TH17 cells", "details": "2 mM U-13C-glutamine for 4 hours", "description": "as §1, with “background. For negative mode metabolomics: Cell extracts obtained as described above were analyzed for relative abundance of metabolites by liquid chromatography-triple quadrupole mass spectrometry (LC-MS) using scheduled selective reaction monitoring (SRM) for each metabolite of interest, with the detector set to negative mode. Prior to injection, dried extracts were reconstituted in LC-MS grade water. LC separation was achieved by reverse-phase ion-pairing chromatography.” for “background.”"}, "[5]": {"tested_on": "FOXP3, Il17, Il17f, and Rorc mRNA in TH17 cells", "experiment": "mRNA expression analysis by qRT-PCR in TH17 cells", "details": "normalized to β-actin", "description": "as §2"}}}
{"smiles": "NOCC(=O)O", "note": "[AOA, (aminooxy)-acetic acid]", "values": [{"measurement": "reduction of total intracellular 15N-α-aspartate", "setting": "[1]; differentiating iTreg cells fed 2 mM 15N-α-glutamine for 4 hours", "result": 75, "unit": "%"}, {"measurement": "de novo synthesis for several amino acids (15N label incorporation)", "setting": "[1]; differentiating iTreg cells, 2 mM 15N-α-glutamine for 4 hours", "result": "significant decreases"}, {"measurement": "methylation level of FOXP3 promoter and its intronic CpG island", "setting": "[2]", "result": "dramatically decreased the methylation levels"}, {"measurement": "FOXP3 mRNA expression", "setting": "[3]", "result": "promoted transcription of FOXP3"}, {"measurement": "de novo synthesis of α-KG and 2-HG (U-13C labeled, normalized to U-13C-glutamine)", "setting": "[4]", "result": "inhibited"}, {"measurement": "FOXP3 mRNA expression", "setting": "[5]", "result": "promoted transcription of FOXP3"}, {"measurement": "Il17/Il17f mRNA level", "setting": "[5]; re-stimulated with anti-CD3 and anti-CD28 for 5 hours", "result": "selectively reduced the mRNA level of Il17/Il17f"}]}
